Measured values as given in patent US20230416329A1, “A PEPTIDE WITH DISULFIDE BONDS AND INHIBITORY ACTIVITY AGAINST SERINE PROTEASES, DERIVED HYBRID PEPTIDES THEREOF, AND USES THEREOF” (INSTITUTE OF MATERIA MEDICA , CHINESE ACADEMY OF MEDICAL …, priority 2020, published 2023).
Bridge positions count the residues as written; N and C are the ends. Ends that are not written are not given here. Peptide text beside a SMILES is read from it.

Assays:
[1] = rat, in vivo
Experimental: (§1) Rats were fasted for 12 hours with water ad libitum before the experiment. The animals were randomly divided into 4 groups (5 animals in each group). The normal control group was injected with normal saline solution, and the commercially available salmon Calcitonin (sCat) and synthetic Calcitonin analog (CalM) were injected subcutaneously. The capsule form Cal BT (1 umol/kg, p.o.) was administered by gavage.

chymotrypsin = chymotrypsin (Bos taurus, UniProt P00766); assay: in vitro
Outline: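 Peptide and 0.05 μg/μL chymotrypsin were preincubated at 37 °C for 5 min, then mixed. Aliquots taken from 1.5 up to 60.0 min were quenched with 10% TFA, and remaining peptide was measured as RP-HPLC peak area.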

trypsin = molecular target: T1, trypsin (Bos taurus, UniProt P00760); assay: in vitro; details: for Remaining peak area (%)/Trypsin: 0 h
T1 sequence (P00760 24-246): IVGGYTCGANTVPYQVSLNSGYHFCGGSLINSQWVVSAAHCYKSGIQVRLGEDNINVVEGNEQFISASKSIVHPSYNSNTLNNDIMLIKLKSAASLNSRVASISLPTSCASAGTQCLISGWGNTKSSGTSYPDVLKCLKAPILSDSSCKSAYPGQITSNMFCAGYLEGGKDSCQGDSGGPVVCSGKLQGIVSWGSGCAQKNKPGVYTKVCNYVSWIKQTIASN
Outline: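 Peptides were preincubated for 5 min at 37 °C and then digested with 0.05 μg/μL trypsin solution (stock). Remaining intact peptide was quantified as RP-HPLC peak area.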

rats = assay: Hypo-calcifying effect of salmon calcitonin and analogues, blood calcium concentration in rats; type: in vivo, rat; details: sCat and CalM subcutaneous, capsule form Cal BT 1 umol/kg p.o., 0-24 h
Experimental: FIG. 24. The blood calcium concentration percentage-time curve of rat.
as §1
Take blood from the inner canthus of rats at the predetermined time points: 0, 2, 3, 4, 6, 8, 12, and 24 h later, with at least 0.2 mL of blood taken each time. The blood sample was placed at 4° C. for stratification and centrifuged at 3000 rpm for 10 minutes. The serum was separated and measured for serum calcium ion concentration.
The serum calcium ion concentration at 0 h was considered as baseline, the blood calcium concentration at other time was converted into the percentage ratio of baseline. The blood calcium curve was drawn with time as the X axis and the percentage of blood calcium concentration (%) as the Y axis.

mouse ear swelling = assay: Croton oil mouse ear swelling, IL-17A inhibitory peptide administered subcutaneously; type: in vivo; details: subcutaneous, peptides 30 mg/kg, Secukinumab 5 mg/kg
Experimental: IL-17A is an inflammatory factor in many chronic inflammatory reactions. In order to quickly evaluate and analyze its anti-inflammatory effects, a mouse ear swelling model was first used for preliminary screening of anti-inflammatory activities. The experimental process is as follows. Kunming male mice (18-20 g, n=10) were labeled with picric acid. All mice in each group were coated with 10 μL croton oil on both sides of the right ear. Immediately after modeling, the positive drugs Secukinumab group (5 mg/kg), inhibitory peptides 17A, 17A-BT, 17A-CH, and 17A-EC (30 mg/kg) were subcutaneously injected. The model control group (Con) was injected with a corresponding volume of physiological saline. After causing inflammation for 4 hours, the mice in each group were killed for cervical dislocation, and then the ear pieces were punched in the symmetrical parts of the left and right ears with a hole punch. The weight was weighed and recorded. The swelling degree and swelling rate were calculated:
Swelling rate=((right ear mass−left ear mass)/left ear mass)*100%

[2] = molecular target: T2, interaction of PCSK9-LDLR (Homo sapiens, UniProt Q8NBP7); assay: PCSK9-LDLR in vitro binding assay (inhibitory rate); details: in vitro
T2 construct: purchased MBL Company, Beijing, China CY-8150
Outline: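 Polypeptide (final 50 μM) pre-incubated 20 min at room temperature with PCSK9 (final 75 ng/mL), then run in a PCSK9-LDLR binding kit read at OD450/540 nm. Inhibition rate calculated relative to a solvent control (water or DMSO) lacking polypeptide.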

[3] = test system: P407-induced hyperlipidemia mice; assay: Subcutaneous injection of PCSK9 inhibitory peptide, serum total cholesterol in P407-induced hyperlipidemia mice; type: in vivo, mouse; details: for serum total cholesterol (TC) level after subcutaneous injection (in words): 2 μmol/kg single s.c., P407-induced hyperlipidemia mice
Outline: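 ICR mice, fasted overnight, received intraperitoneal P407 at 500 mg/kg. After 24 h they received subcutaneous peptide at 2 μmol/kg in 20% PEG400; vehicle-treated and normal groups served as controls. Serum total cholesterol was measured at various times after dosing.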

[4] = test system: P407 induced hyperlipidemia mice; assay: Duodenal injection of PCSK9 inhibitory peptide, serum total cholesterol in P407 induced hyperlipidemia mice; type: in vivo, mouse
Experimental: The experimental polypeptide sample was prepared using PEG400 with a final concentration of 20 μmol/kg and the final concentration of PEG400 is 50% (w/v). The control group was saline containing PEG400 (50%).
Normal ICR mice were fasted overnight with water ad libitum. The next day, all of the mice were intraperitoneally injected with poloxamer 407 (P407, 500 mg/kg) to establish a model of lipid metabolism disorder. Six mice were intraperitoneally injected with saline as a normal control (Nor). Normal feeding resumed after 2 hours. The model animals were randomly divided into model group (Con) and polypeptide groups according to body weight, and the blood was collected from tail tip (0 min). Then, the animals were anesthetized with ether for duodenal exposure surgery. At the same time, a sample or saline containing PEG400 was injected through the duodenum. Finally, the wound was sutured. The blood was collected from tail tip at 15, 30, 60, and 90 minutes after administration to determine the serum total cholesterol level.

[5] = isolated enzyme chymotrypsin, pH 7.8, Remaining peak area (%)/chymotrypsin
[6] = isolated enzyme trypsin, pH 7.8

In the case of `CC[C@H](C)[C@@H]1NC(=O)[C@@H]2CCCN2C(=O)[C@@H]2CCCN2C(=O)[C@H]([C@@H](C)CC)NC(=O)[C@H](CO)NC(=O)[C@H](CCCCN)NC(=O)[C@H]([C@@H](C)O)NC(=O)[C@H](C)NC(=O)[C@H](CCCNC(=N)N)NC(=O)[C@H](C)NC(=O)[C@@H](NC(=O)CNC(=O)[C@@H]2CCCN2C(=O)[C@@H](NC(=O)CNC(=O)[C@H](CO)NC(=O)CNC(=O)[C@@H](NC(=O)[C@H](CC(N)=O)NC(=O)[C@@H](NC(=O)[C@H](CCCNC(=N)N)NC(=O)[C@@H]2CCCN2C(=O)[C@H](Cc2ccc(O)cc2)NC(=O)[C@@H](NC(=O)[C@H](CCC(N)=O)NC(=O)[C@H](CC(C)C)NC(=O)[C@H](CCCCN)NC(=O)[C@H](Cc2c[nH]cn2)NC(=O)[C@H](C)NC(=O)[C@H](CCC(=O)O)NC(=O)[C@H](CCC(N)=O)NC(=O)[C@H](CO)NC(=O)[C@H](CC(C)C)NC(=O)[C@H](CCCCN)NC(=O)CNC(=O)[C@H](CC(C)C)NC(=O)CNC(=O)[C@@H]2CSSC[C@H](N)C(=O)N[C@@H](CO)C(=O)N[C@@H](CC(N)=O)C(=O)N[C@@H](CC(C)C)C(=O)N[C@@H](CO)C(=O)N[C@@H]([C@@H](C)O)C(=O)N2)[C@@H](C)O)[C@@H](C)O)[C@@H](C)O)[C@@H](C)O)CSSC[C@@H](C(=O)N[C@@H](Cc2ccccc2)C(=O)O)NC1=O` [Cal-BT], the “Body weight (g) X ± SD End” value [1] is reported as 158.9 ± 3.2 g, the “Body weight (g) X ± SD Start” value [1] is reported as 176.1 ± 5.1 g and the “Changes of body weight (%)” value [1] is reported as −9.80%. The “stability towards chymotrypsin hydrolysis (in words)” value (chymotrypsin) was “high tolerance to chymotrypsin”, the “Remaining peak area (%)/chymotrypsin” value (chymotrypsin; 0 h) was 100.0 ± 0.0% and the remaining at 0.025 h, 60 μM (chymotrypsin; [5]) was 86.3 ± 9%. For the same compound, the remaining at 0.05 h, 60 μM (chymotrypsin; [5]) was 83.9%, the remaining at 0.075 h, 60 μM (chymotrypsin; [5]) was 73.1 ± 1.7% and the remaining at 0.1 h, 60 μM (chymotrypsin; [5]) was 71.8 ± 1.1%. It also gave a remaining at 0.15 h, 60 μM (chymotrypsin; [5]) of 70 ± 3%, a remaining at 0.25 h, 60 μM (chymotrypsin; [5]) of 61.3% and a remaining at 0.5 h, 60 μM (chymotrypsin; [5]) of 58.9 ± 2.3%. For the same compound, the remaining at 1 h, 60 μM (chymotrypsin; [5]) was 46 ± 1.3%, the “stability towards trypsin hydrolysis (in words)” value (trypsin) was “resistant to the corresponding protease degradation” and the “Remaining peak area (%)/Trypsin” value (trypsin) was 100.0 ± 0.0%. The remaining at 0.025 h, 60 μM (trypsin; [6]) was 84.2 ± 5.6%, the remaining at 0.05 h, 60 μM (trypsin; [6]) was 87.8 ± 1% and the remaining at 0.075 h, 60 μM (trypsin; [6]) was 71.4 ± 0.9%. It also gave a remaining at 0.1 h, 60 μM (trypsin; [6]) of 74.3 ± 3.4%, a remaining at 0.15 h, 60 μM (trypsin; [6]) of 77.1 ± 8.4% and a remaining at 0.25 h, 60 μM (trypsin; [6]) of 69.4 ± 6.5%. The remaining at 0.5 h, 60 μM (trypsin; [6]) was 69.5 ± 6.6%, the remaining at 1 h, 60 μM (trypsin; [6]) was 68.2 ± 8.4% and the “blood calcium concentration (in words)” value (rats) was “did not effectively reduce the blood calcium concentration of rats within 24 h after administration”. The “blood calcium concentration (in words)” value (rats; listed as Cal BT) was “did not effectively reduce the concentration of calcium ions in rats”.

In the case of `CC(C)C[C@H](NC(=O)CNC(=O)[C@@H]1CSSC[C@H](N)C(=O)N[C@@H](CO)C(=O)N[C@@H](CC(N)=O)C(=O)N[C@@H](CC(C)C)C(=O)N[C@@H](CO)C(=O)N[C@@H]([C@@H](C)O)C(=O)N1)C(=O)NCC(=O)N[C@@H](CCCCN)C(=O)N[C@@H](CC(C)C)C(=O)N[C@@H](CO)C(=O)N[C@@H](CCC(N)=O)C(=O)N[C@@H](CCC(=O)O)C(=O)N[C@@H](C)C(=O)N[C@@H](Cc1c[nH]cn1)C(=O)N[C@@H](CCCCN)C(=O)N[C@@H](CC(C)C)C(=O)N[C@@H](CCC(N)=O)C(=O)N[C@H](C(=O)N[C@@H](Cc1ccc(O)cc1)C(=O)N1CCC[C@H]1C(=O)N[C@@H](CCCNC(=N)N)C(=O)N[C@H](C(=O)N[C@@H](CC(N)=O)C(=O)N[C@H](C(=O)NCC(=O)N[C@@H](CO)C(=O)NCC(=O)N[C@H](C(=O)N1CCC[C@H]1C(=O)O)[C@@H](C)O)[C@@H](C)O)[C@@H](C)O)[C@@H](C)O` [CalM] (H-CSNLSTCGLGKLSQEAHKLQTYPRTNTGSGTP-OH; disulfide 1-7), the “Body weight (g) X ± SD End” value [1] is reported as 160.9 ± 4.7 g, the “Body weight (g) X ± SD Start” value [1] is reported as 180.2 ± 6.8 g and the “Changes of body weight (%)” value [1] is reported as −10.71%. The remaining at 1 h, 60 μM (chymotrypsin; isolated enzyme chymotrypsin, pH 7.8, prototype peptide remaining after chymotrypsin hydrolysis) was ~4.9%, the “stability towards trypsin hydrolysis (in words)” value (trypsin) was “extremely unstable towards trypsin” and the “Remaining peak area (%)/Trypsin” value (trypsin) was 100.0 ± 0.0%. It also gave a remaining at 0.025 h, 60 μM (trypsin; [6]) of 9 ± 2.3%, a remaining at 0.05 h, 60 μM (trypsin; [6]) of 0% and a remaining at 0.075 h, 60 μM (trypsin; [6]) of 0%. The remaining at 0.1 h, 60 μM (trypsin; [6]) was 0% and the remaining at 0.15 h, 60 μM (trypsin; [6]) was 0%.

For “Secukinumab: positive drug in the subcutaneous ear swelling test; anti IL-17A antibody”, the “Swelling (%)” value (mouse ear swelling; 4 hours after croton oil) was 72.54 ± 25.32 % and the “Swelling inhibitory (%)” value (mouse ear swelling; vs model control) was 37.36%.

With “Trp-Glu-Glu-Tyr-Leu-Asp-Tyr-Val-Gly-Phe-Cys-Thr-Tyr-Ser-Ile-Pro-Pro-Gln-Cys-Tyr-Gly-Thr-Val-Phe-Thr-Ser (WEEYLDYVGFCTYSIPPQCYGTVFTS; disulfide 11-19 (inferred)) [PCSK9_6CH]” the “inhibitory activity on the interaction between PCSK9 and LDLR (in words)” value [2] was “good inhibitory activity on the interaction between PCSK9 and LDLR”, the “inhibitory activity on the interaction between PCSK9 and LDLR (in words)” value ([2]; listed as SEQ ID NO: 230) was “good inhibitory effects in vitro” and the “serum total cholesterol (TC) level after subcutaneous injection (in words)” value [3] was “reduced serum TC level”. For the same compound, the “serum total cholesterol (TC) level after subcutaneous injection (in words)” value ([3]; listed as SEQ ID NO: 230) was “excellent lowering lipid (total cholesterol) activities in vivo”, the “TC 15 min” value ([3]; serum, subcutaneous 2 μmol/kg, 15 min after administration, mean ± sd) was 3201 ± 1389 µg/mL and the “TC 30 min” value ([3]; serum, subcutaneous 2 μmol/kg, 30 min after administration, mean ± sd) was 3363 ± 865 µg/mL. For the same compound, the “TC 60 min” value ([3]; serum, subcutaneous 2 μmol/kg, 60 min after administration, mean ± sd) was 2691 ± 979 µg/mL, the “TC 90 min” value ([3]; serum, subcutaneous 2 μmol/kg, 90 min after administration, mean ± sd) was 2655 ± 954 µg/mL and the “hypolipidemic activity after duodenal administration (in words)” value ([4]; 20 μmol/kg, P407 induced hyperlipidemia mice) was “did not show hypolipidemic activity”. For the same compound, the “TC 15 min” value ([4]; serum, duodenal injection 20 μmol/kg, 15 min, mean ± sd) was 2742 ± 651 µg/mL, the “TC 30 min” value ([4]; serum, duodenal injection 20 μmol/kg, 30 min, mean ± sd) was 3071 ± 590 µg/mL and the “TC 60 min” value ([4]; serum, duodenal injection 20 μmol/kg, 60 min, mean ± sd) was 3127 ± 567 µg/mL. For the same compound, the “TC 90 min” value ([4]; serum, duodenal injection 20 μmol/kg, 90 min, mean ± sd) was 2986 ± 650 µg/mL.
